Like-named read-outs stand apart in the source and are kept apart here.
Columns and labels:
[1] = molecular target: wild-type C. elegans complex II (Caenorhabditis elegans, UniProt O62215+P41956+Q09508+Q09545); experiment: biochemical; assay type: biochemical
C. elegans N2 = experiment: 96-well liquid-based dose-response (in vivo LD100), wild-type worms; details: lowest concentration with no viable animals in four of four wells, 6 days after 20 L1 worms deposited
Protocol: (§1) The 96-well liquid-based chemical screening assay was adapted from an established RNAi screening protocol. Briefly, saturated HB101 Escherichia coli culture was concentrated 2-fold using NGM (nematode growth media) containing 3 mg ml^−1 NaCl, 2.5 mg ml^−1 peptone, 5 μg ml^−1 cholesterol, 1 mM CaCl2, 1 mM MgSO4 and 25 mM KH2PO4. A total of 40 μl of NGM+HB101 was dispensed into each well of a 96-well plate, and chemicals were pinned into the wells using a pinning tool with a 300 nl slot volume (V&P Scientific). Approximately 20 synchronized first larval-stage (L1) worms, in 10 μl of M9 buffer (see ref. [24] for the recipe), were then added to each well. The synchronized L1s were obtained from an embryo preparation (see ref. [24] for the protocol) performed the previous day. The final concentration of dimethyl sulfoxide (DMSO) in the wells was 0.6% v/v. A dissection microscope was used to visualize the wells either 5 or 6 days post worm deposition and any obvious chemical-induced phenotypes were noted.
(§2) The 96-well liquid-based assay was also used for all follow-up dose-response experiments in this work. These experiments were carried out in quadruplicate, and the total number of worms in each well was counted 6 days after worm deposition.

[2] = tested on: wact-11-family resistant C. elegans mutants (RP2674, RP2698 and others); experiment: 96-well liquid-based dose-response (in vivo LD100), wact-11-family resistant mutants; details: for Resistance of wact-11-family resistant mutants to compound-induced lethality (in words): liquid dose-response of resistant mutants versus N2; for In vivo LD100: 6 days
Protocol: as §1, §2

Mouse complex II = molecular target: T1, Mouse complex II (Mus musculus, UniProt Q9CQA3+Q9CXV1+Q9CZB0); experiment: Cell-free Complex II functional assay, mouse liver mitochondria; assay type: biochemical, M. musculus
T1 construct: The livers from three 8–10-week-old C57Bl/6 female mice (Charles River) were removed; tissue Charles River (mice); host or cells: crude mitochondria from liver of C57Bl/6 female mice
Protocol: The livers from three 8–10-week-old C57Bl/6 female mice (Charles River) were removed, collected in 1.5 ml microcentrifuge tubes, flash frozen in liquid nitrogen and stored at −80 °C until needed. Just before mitochondria isolation, the livers were weighed, placed into a 10-cm petri dish and 10 ml isolation buffer A was added per gram of liver tissue. The tissue was finely minced with a razor blade, transferred to a glass Dounce homogenizer and homogenized by 10 strokes on ice. The homogenate was centrifuged at 1,000g for 10 min at 4 °C. The supernatant was collected and centrifuged at 1,000g for 10 min at 4 °C. The supernatant was again collected and centrifuged at 16,000g for 10 min at 4 °C. The pellet was resuspended in 20 ml of isolation buffer B and centrifuged at 16,000g for 10 min at 4 °C. The pellet was resuspended in 20 ml of isolation buffer B, and 1 ml aliquots of the resuspension were distributed into 20 × 1.5 ml microcentrifuge tubes. The aliquoted resuspensions were centrifuged at 16,000g for 10 min at 4 °C. The supernatant was aspirated, the pellet was flash frozen in liquid nitrogen and stored frozen at −80 °C until needed. The mice used for experimentation were housed and used in accordance with ‘the use and care of experimental animals' guidelines. […]
Mitochondrial pellets were thawed on ice and resuspended in 300 μl of cold isolation buffer B. Using the BCA assay, the protein concentration of the mitochondria suspension was determined and was subsequently diluted to a concentration of 0.2 mg ml^−1 with cold isolation buffer B. Complex II enzymatic assays were carried out in 96-well flat bottom plates. […] Absorbance for each well was measured at 600 nm using a SpectraMax Plus 384-well Microplate Reader, combined with SoftmaxPro software at 30-s intervals over a 35-min time period. Absorbance versus time was plotted for each well and enzyme activity was calculated as the slope of the line defined by the points ranging from 4 to 10 min. Per cent activity was calculated by dividing the enzyme activity of the chemical-treated wells by that of the DMSO control wells. […]

[3] = molecular target: C. elegans complex II with SDHC-1(R74K) missense mutation (Caenorhabditis elegans, UniProt O62215+P41956+Q09508+Q09545, R74K); experiment: Cell-free Complex II functional assay, mitochondria from wact-11-resistant mutants RP2674 and RP2698; assay type: biochemical
[4] = tested on: three nematode species, zebrafish and HEK cells; experiment: Grouping by phylogenetic bioactivity profile (multi-organism screening pipeline); parameters: key: Group 1 molecules are lethal to only one or two of the three nematode species tested, but are non-lethal to zebrafish and HEK cells.; Group 2 molecules are lethal to all three nematode species, but are non-lethal to zebrafish and human cells.; Group 3 molecule are lethal to fish or HEK cells, regardless of their nematode bioactivity profile; details: nematode selectivity and cross-species lethality group
Source text: To further characterize our 275 C. elegans-lethal molecules, we organized them into three separate groups based on their phylogenetic bioactivity profiles (Fig. 2a). Group 1 contains 102 molecules that are lethal to only one or two of the three nematode species tested, but are non-lethal to zebrafish and HEK cells. Group 2 contains 67 compounds that are lethal to all three nematode species, but are non-lethal to zebrafish and human cells. Group 3 contains the remaining 106 compounds that are lethal to fish or HEK cells, and have varied bioactivity in different nematode species. In particular, the 67 molecules in group 2 represent potentially ideal anthelmintic leads; they have activity across multiple nematode species, and appear not to affect vertebrates.

[5] = tested on: complex II from the parasitic nematode Ascaris suum; parameters: method as in PMID 19724139, PMID 23333273; details: cited from earlier work
[6] = C. elegans, strain N2, SDHC residue change none, read-out: In vitro Complex II IC50
[7] = read-out: In vitro Complex II IC50, C. elegans, strain RP2674, SDHC R74K
[8] = read-out: In vitro Complex II IC50, C. elegans, strain RP2698, SDHC R74K
[9] = M. musculus, C57Bl/6 liver mitochondria, read-out: In vitro Complex II IC50
[10] = C. elegans strain RP2674 (SDHC R74K)
[11] = C. elegans strain RP2698 (SDHC R74K)

T1 sequence (Q9CZB0 30-169): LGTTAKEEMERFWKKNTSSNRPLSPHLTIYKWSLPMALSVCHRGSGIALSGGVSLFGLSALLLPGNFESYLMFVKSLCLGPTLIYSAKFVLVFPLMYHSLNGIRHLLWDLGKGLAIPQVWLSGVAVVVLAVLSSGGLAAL
T1 sequence (Q9CQA3 31-282): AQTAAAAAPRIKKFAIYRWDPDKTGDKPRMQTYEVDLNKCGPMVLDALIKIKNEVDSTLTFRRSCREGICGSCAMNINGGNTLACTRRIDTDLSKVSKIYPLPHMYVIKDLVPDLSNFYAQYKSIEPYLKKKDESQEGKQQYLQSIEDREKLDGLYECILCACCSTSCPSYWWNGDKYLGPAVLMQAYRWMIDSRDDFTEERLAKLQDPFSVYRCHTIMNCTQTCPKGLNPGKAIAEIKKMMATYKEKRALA
T1 sequence (Q9CXV1 57-159): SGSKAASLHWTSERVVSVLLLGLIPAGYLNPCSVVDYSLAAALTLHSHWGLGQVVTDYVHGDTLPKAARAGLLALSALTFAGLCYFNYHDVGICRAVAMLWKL
T1 sequence (Q8K2B3 43-664 partner): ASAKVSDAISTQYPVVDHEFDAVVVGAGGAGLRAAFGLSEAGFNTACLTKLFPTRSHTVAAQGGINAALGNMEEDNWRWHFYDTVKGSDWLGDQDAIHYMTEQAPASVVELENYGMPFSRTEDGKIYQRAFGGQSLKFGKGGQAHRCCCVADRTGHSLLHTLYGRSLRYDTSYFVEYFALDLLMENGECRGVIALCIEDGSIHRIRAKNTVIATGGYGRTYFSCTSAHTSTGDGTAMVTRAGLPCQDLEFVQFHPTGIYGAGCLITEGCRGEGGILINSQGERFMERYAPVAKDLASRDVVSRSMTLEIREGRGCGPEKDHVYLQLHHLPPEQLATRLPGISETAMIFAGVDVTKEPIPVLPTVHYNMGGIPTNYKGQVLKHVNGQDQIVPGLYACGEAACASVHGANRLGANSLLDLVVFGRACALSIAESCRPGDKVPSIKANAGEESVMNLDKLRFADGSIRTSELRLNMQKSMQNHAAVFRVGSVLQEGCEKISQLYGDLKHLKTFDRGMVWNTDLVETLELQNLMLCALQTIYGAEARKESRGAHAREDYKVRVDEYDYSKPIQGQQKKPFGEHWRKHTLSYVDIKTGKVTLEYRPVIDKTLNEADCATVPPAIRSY
Sequence of wild-type C. elegans complex II (O62215 whole entry): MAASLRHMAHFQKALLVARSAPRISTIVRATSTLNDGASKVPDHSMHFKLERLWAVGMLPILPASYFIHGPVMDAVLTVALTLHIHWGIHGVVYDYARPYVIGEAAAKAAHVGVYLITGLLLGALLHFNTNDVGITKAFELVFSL
Sequence of wild-type C. elegans complex II (Q09545 whole entry): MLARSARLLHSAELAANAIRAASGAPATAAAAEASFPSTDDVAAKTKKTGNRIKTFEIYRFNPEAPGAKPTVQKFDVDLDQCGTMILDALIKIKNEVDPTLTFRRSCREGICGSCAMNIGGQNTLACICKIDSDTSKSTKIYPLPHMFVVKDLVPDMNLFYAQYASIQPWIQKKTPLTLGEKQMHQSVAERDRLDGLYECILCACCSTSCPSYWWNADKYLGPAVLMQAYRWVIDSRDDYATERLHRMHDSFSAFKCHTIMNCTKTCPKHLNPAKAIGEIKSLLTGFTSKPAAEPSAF
Sequence of wild-type C. elegans complex II (Q09508 32-646): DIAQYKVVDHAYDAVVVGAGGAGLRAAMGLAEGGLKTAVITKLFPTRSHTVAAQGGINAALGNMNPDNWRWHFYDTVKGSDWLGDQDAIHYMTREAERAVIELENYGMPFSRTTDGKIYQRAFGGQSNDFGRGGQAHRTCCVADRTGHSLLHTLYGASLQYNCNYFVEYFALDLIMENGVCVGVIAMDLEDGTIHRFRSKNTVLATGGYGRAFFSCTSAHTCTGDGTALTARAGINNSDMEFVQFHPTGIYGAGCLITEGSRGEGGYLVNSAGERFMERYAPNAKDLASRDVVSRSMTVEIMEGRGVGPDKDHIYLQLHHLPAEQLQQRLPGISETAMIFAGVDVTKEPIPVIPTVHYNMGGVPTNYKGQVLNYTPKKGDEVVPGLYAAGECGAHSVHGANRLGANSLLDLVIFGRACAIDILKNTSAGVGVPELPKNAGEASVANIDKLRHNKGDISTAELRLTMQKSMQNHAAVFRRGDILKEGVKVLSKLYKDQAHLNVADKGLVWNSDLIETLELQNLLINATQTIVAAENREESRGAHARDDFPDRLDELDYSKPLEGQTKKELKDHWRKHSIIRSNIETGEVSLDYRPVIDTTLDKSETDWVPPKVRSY
Sequence of wild-type C. elegans complex II (P41956 whole entry): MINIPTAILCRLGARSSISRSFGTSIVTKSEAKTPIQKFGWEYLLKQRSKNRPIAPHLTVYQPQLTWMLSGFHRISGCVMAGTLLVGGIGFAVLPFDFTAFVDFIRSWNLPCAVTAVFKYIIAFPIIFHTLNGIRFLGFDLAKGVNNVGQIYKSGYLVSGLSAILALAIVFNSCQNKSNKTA
Sequence of C. elegans complex II with SDHC-1(R74K) missense mutation (O62215 whole entry): as the sequence (O62215 whole entry) above
Sequence of C. elegans complex II with SDHC-1(R74K) missense mutation (P41956 whole entry R74K): as the sequence (P41956 whole entry) above, with R74K counted along it
Sequence of C. elegans complex II with SDHC-1(R74K) missense mutation (Q09508 32-646): as the sequence (Q09508 32-646) above
Sequence of C. elegans complex II with SDHC-1(R74K) missense mutation (Q09545 whole entry): as the sequence (Q09545 whole entry) above

Compound: O=C(NCCc1ncc(C(F)(F)F)cc1Cl)c1ccccc1C(F)(F)F [Fluopyram]
- IC50 [1]: 0.0018 µM
- Less inhibiting than wact-11 f and wact-11 m ([1]; C. elegans N2 complex II IC50): ~2 fold
- In vivo LD100 (C. elegans N2): 0.469 µM
- Resistance of wact-11-family resistant mutants to compound-induced lethality (in words) [2]: resist the lethality

Compound: O=C(Nc1ccccc1-c1ccc(Cl)cc1)c1cccnc1Cl [Boscalid]
- IC50 [1]: 0.549 µM
- In vivo LD100 (C. elegans N2): >120 µM

Compound: O=C(Nc1ccccc1)c1ccccc1I [Benodanil]
- IC50 [1]: 0.186 µM
- In vivo LD100 (C. elegans N2): 120 µM
- Resistance of wact-11-family resistant mutants to compound-induced lethality (in words) [2]: resist the lethality

Compound: COc1[nH]c(=O)c(C(=O)[C@@H](C)C[C@H](C)[C@@H](Cl)CCl)c(O)c1OC [Atpenin A5]
- IC50 (Mouse complex II): 0.593 µM
- In vivo LD100 (C. elegans N2): >120 µM

Compound: Cc1occc1C(=O)Nc1ccccc1 [Fenfuran]
- IC50 [1]: 5.28 µM
- In vivo LD100 (C. elegans N2): >120 µM

Compound: C/C=C/CC(C)C(=O)c1c(O)c(OC)c(OC)[nH]c1=O (stereo not shown) [Harz, harzianopyridone]
- IC50 [1, 6]: > 10 µM
- In vivo LD100 (C. elegans N2): >120 µM

Compound: O=C(CC(=O)C(F)(F)F)c1cccs1 [TTFA, thenoyltrifluoroacetone]
- IC50 [1, 6]: > 10 µM
- In vivo LD100 (C. elegans N2): >120 µM

Compound: Cc1nc(C(F)(F)F)c(C(=O)Nc2c(Br)cc(OC(F)(F)F)cc2Br)s1 [Thifluzamide]
- IC50 [1]: 3.82 µM
- In vivo LD100 (C. elegans N2): >120 µM

Compound: Cc1ccc(SCCNC(=O)c2ccccc2I)cc1 [wact-12c]
- IC50 [1, 6]: 0.133 µM
- In vivo LD100 (C. elegans N2): >120 µM

Compound: CCc1ccc(OCCNC(=O)c2ccccc2I)cc1 [wact-12]
- IC50 [1]: 0.0057 µM
- IC50 [3]: > 10 µM
- IC50 [3, 7]: > 10 µM
- IC50 [3, 8]: > 10 µM
- IC50 (Mouse complex II; [9]): > 10 µM
- In vivo LD100 (C. elegans N2): 7.5 µM
- In vivo LD100 [2, 10]: >120 µM
- In vivo LD100 [2, 11]: >120 µM
- Group # (Bioactivity Group #) [4]: 2

Compound: O=C([O-])CC(=O)[O-].[Na+].[Na+] [Malonate, disodium malonate]
- IC50 [1, 6]: 4900 µM
- IC50 ([3]; C. elegans, strain RP2674, SDHC R74K, read-out: In vitro Complex II IC50): 4200 µM
- IC50 ([3]; C. elegans, strain RP2698, SDHC R74K, read-out: In vitro Complex II IC50): 4200 µM
- In vivo LD100 (C. elegans N2): >120 µM

Compound: CC1=C(C(=O)Nc2ccccc2)SCCO1 [Carboxine]
- IC50 [1]: > 10 µM
- In vivo LD100 (C. elegans N2): >120 µM

Compound: CC(C)Oc1cccc(NC(=O)c2ccccc2C(F)(F)F)c1 [Flutolanil]
- IC50 [1]: 0.311 µM
- In vivo LD100 (C. elegans N2): >120 µM
- Inhibition of Ascaris suum complex II in vitro (in words) [5]: inhibit

Compound: CC1=NS(=O)(=O)c2cc(Cl)ccc2N1 [Diazoxide]
- IC50 [1]: > 10 µM
- In vivo LD100 (C. elegans N2): >120 µM

Compound: O=C(NCCc1ccc(Cl)cc1)c1ccccc1C(F)(F)F [wact-11]
- IC50 [1]: 0.0074 µM
- IC50 [3]: > 10 µM
- IC50 [3, 7]: > 10 µM
- IC50 [3, 8]: > 10 µM
- IC50 (Mouse complex II; [9]): > 10 µM
- In vivo LD100 (C. elegans N2): 7.5 µM
- In vivo LD100 [2, 10]: >120 µM
- In vivo LD100 [2, 11]: >120 µM
- Resistance of wact-11-family resistant mutants to compound-induced lethality (in words) [2]: at least some resistance
- Group # (Bioactivity Group #) [4]: 2

Compound: CCCCCNC(=O)c1ccccc1SC [wact-127]
- Group # (Bioactivity Group #) [4]: 2

— PMC4491176, “Caenorhabditis elegans is a useful model for anthelmintic discovery” (Nature Communications, 2015)
